The source of these data is patent US20150080438A1, “6,7-Dihydro-5H-benzo[7]annulene derivatives, processes for their preparation, pharmaceutical products comprising them and their use for preparing medicaments” (Bayer Intellectual Property GmbH, priority 2011, published 2015).

The test system of data set [1] is uterus growth induced by 17β-estradiol. In words: Anti-uterus growth test in the adult rat. Conditions: ovariectomized adult rat, percentage inhibition of uterus growth; for inhibition in vivo at 0.3 mg/kg: sc, 0.3 mg/kg s.c. d1-d3 with 1.5 μg/kg/day 17β-estradiol, read-out: Anti-oestrogenic activity in vivo in % at a dose of 0.3 mg/kg (rat); for Anti-oestrogenic activity in vivo in % at a dose of 1 mg/kg (rat): 1 mg/kg s.c. d1-d3 with 1.5 μg/kg/day 17β-estradiol. The format is in vivo. The source says:
The uterus of oestrogen-substituted rats can be used as a test model for detecting a direct action of substances with anti-oestrogenic properties. The parameter of oestrogenic action is estradiol-induced uterus growth in rats, which is inhibited by simultaneous administration of a substance with anti-oestrogenic action. The experimental animals (n=5-6 animals/group) were ovariectomized before the start of the test, to rule out the influence of endogenous oestrogens. After a phase of 6 to 10 days, the test substances are administered s.c. on 3 consecutive days (d1-d3) in combination with a substitution dose of 1.5 μg/kg/day of 17β-estradiol. 17β-estradiol alone serves as positive control, and the excipients serve as negative control. On day 4 (d4) the animals are killed, and the uteri and vaginae are removed and weighed. The organ weights are converted to mg/100 g body weight, then the mean value and the standard deviation are calculated for each dosage. The inhibition of uterus or vaginal growth induced by 17β-estradiol is shown as percentage inhibition. The selected claimed substances were investigated in adult female rats as described for their anti-oestrogenic, inhibitory action on the weight of the uterus. At the dosage used, the substances show a marked anti-oestrogenic action in vivo (Table 3 and Table 4).

The subject of data set [2] is ovarian estradiol synthesis. In words: Stimulation of ovarian oestrogen synthesis (HPG axis) in hormonally intact adult rats. The format is in vivo, rat. As to conditions: 3 mg/kg daily for 10 days, quotient of peripheral estradiol values after and before treatment. An excerpt: The clinical use both of pure anti-oestrogens and of various SERMs for the treatment of premenopausal women is limited by their property of stimulating the ovaries through activation of the hypothalamic-pituitary-gonadal axis (HPG axis), which leads to the increase in peripheral estradiol levels (Palomba, S., Orio, F., Jr., Morelli, M., Russo, T., Pellicano, M., Zupi, E., Lombardi, G., Nappi, C., Panici, P. L., and Zullo, F. (2002). Raloxifene administration in premenopausal women with uterine leiomyomas: a pilot study. J Clin Endocrinol Metab 87, 3603-3608). This stimulation of the HPG axis is associated with penetration of the blood-brain barrier and penetration of the brain. To investigate the ovary-stimulating properties of the claimed pharmacological compounds, hormonally intact adult rats were treated with the substances daily for a period of 10 days. The study end point is the quotient of peripheral estradiol values after and before treatment.
Selected claimed pharmacological substances were investigated as described for their stimulating action on the HPG axis or ovarian estradiol synthesis. The selected substances show markedly less stimulation of the ovaries than the control compound raloxifene at equal dosages (cf. Table 5).

For the next data set, the target named is T1, oestrogen receptor (ER) (Homo sapiens, UniProt P03372).
T1 construct: These MVLN cells express, along with the functional oestrogen receptor (ER), a reporter construct; endogenous in cells; host or cells: MVLN cells (MCF7 derivative with ER-responsive luciferase reporter)
T1 sequence (P03372 1-595): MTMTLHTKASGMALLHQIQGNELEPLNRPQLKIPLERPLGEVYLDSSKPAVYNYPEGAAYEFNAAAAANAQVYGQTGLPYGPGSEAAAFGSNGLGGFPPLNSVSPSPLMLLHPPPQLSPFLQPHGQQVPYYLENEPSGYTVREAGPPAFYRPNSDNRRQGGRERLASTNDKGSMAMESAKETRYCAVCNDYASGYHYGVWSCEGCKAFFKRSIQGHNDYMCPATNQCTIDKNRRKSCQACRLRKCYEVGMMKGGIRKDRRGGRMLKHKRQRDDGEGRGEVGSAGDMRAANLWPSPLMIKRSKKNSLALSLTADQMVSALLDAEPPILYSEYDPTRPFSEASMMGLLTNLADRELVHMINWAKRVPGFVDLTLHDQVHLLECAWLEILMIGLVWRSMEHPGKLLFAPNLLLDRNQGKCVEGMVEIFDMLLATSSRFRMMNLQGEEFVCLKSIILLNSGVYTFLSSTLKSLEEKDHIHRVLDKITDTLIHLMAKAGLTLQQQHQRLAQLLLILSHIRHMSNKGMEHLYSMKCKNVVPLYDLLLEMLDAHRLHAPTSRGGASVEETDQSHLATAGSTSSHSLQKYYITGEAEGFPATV
In words: Anti-oestrogenic action in MVLN cells (inhibition of estradiol-induced luciferase, transactivation antagonism). The format is cell-based. Conditions: inhibition of estradiol-induced luciferase activity, read-out: Anti-oestrogenic action in vitro: MVLN transactivation antagonism IC50. The method in brief: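 MCF7-derived MVLN cells carrying an ER-driven luciferase reporter; test compounds applied with estradiol, and anti-oestrogenic action scored as inhibition of the estradiol-induced luciferase signal.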

Counter-ions that a name gives are not always drawn.

Broadly, the IC50 is the concentration that gives 50% inhibition. Turning to `CN(CCCCCCC1=C(c2ccc(O)cc2)CCCc2cc(O)ccc21)CCCS(=O)(=O)CCCC(F)(F)C(F)(F)F` [Example 27, 8-(4-Hydroxyphenyl)-9-[6-(methyl{3-[(4,4,5,5,5-pentafluoropentyl)sulphonyl]propyl}amino)hexyl]-6,7-dihydro-5H-benzo[7]annulen-3-ol], the inhibition in vivo at 0.3 mg/kg in data set [1] stood at 80%. Also, in data set [2], the “Stimulation of ovarian oestrogen synthesis: factor at a dose of 3 mg/kg rat” value (“Stimulation” below) stood at 2.4. For the same compound, the IC50 on oestrogen receptor (ER) was 1 nM.
For the compound `O=C(c1ccc(OCCN2CCCCC2)cc1)c1c(-c2ccc(O)cc2)sc2cc(O)ccc12` [raloxifene hydrochloride, raloxifene, reference compound], in data set [2], the “Stimulation” value is on record as 3.1.
As for `CN(CCCCCC1=C(c2ccccc2)CCCc2cc(O)ccc21)CCC[S+]([O-])CCCC(F)(F)C(F)(F)F` (racemic) [Example 2, 9-[5-(Methyl{3-[(RS)-(4,4,5,5,5-pentafluoropentyl)sulphinyl]propyl}amino)pentyl]-8-phenyl-6,7-dihydro-5H-benzo[7]annulen-3-ol], in data set [1], the “Anti-oestrogenic activity in vivo in % at a dose of 1 mg/kg (rat)” value (shortened to “Anti-oestrogenic activity in vivo in %”) was 94% and the inhibition in vivo at 0.3 mg/kg was 51%. For the same compound, in data set [2], the “Stimulation” value turned out to be 1.8. Besides, the IC50 at oestrogen receptor (ER) came to 8 nM.
For `CN(CCCCCCC1=C(c2ccccc2)CCCc2cc(O)ccc21)CCC[S+]([O-])CCCC(F)(F)C(F)(F)F` (racemic) [Example 64, 9-[6-(Methyl{3-[(RS)-(4,4,5,5,5-pentafluoropentyl)sulphinyl]propyl}amino)hexyl]-8-phenyl-6,7-dihydro-5H-benzo[7]annulen-3-ol], the inhibition in vivo at 0.3 mg/kg in data set [1] stood at 85%. Moreover, the IC50 on oestrogen receptor (ER) was 5 nM.
On to `CN(CCCCCCC1=C(c2ccccc2)CCCc2cc(O)ccc21)CCCCS(=O)(=O)CCCC(F)(F)F` [Example 58, 9-[6-(Methyl{4-[(4,4,4-trifluorobutyl)sulphonyl]butyl}amino)hexyl]-8-phenyl-6,7-dihydro-5H-benzo[7]annulen-3-ol], for which the inhibition in vivo at 0.3 mg/kg in data set [1] is 88%. Moreover, at oestrogen receptor (ER), the IC50 stood at 3 nM.
The like results for `CN(CCCCCCC1=C(c2cccnc2)CCCc2cc(O)ccc21)CCCS(=O)(=O)CCCC(F)(F)C(F)(F)F` [Example 44, 9-[6-(Methyl{3-[(4,4,5,5,5-pentafluoropentyl)sulphonyl]propyl}amino)hexyl]-8-(3-pyridyl)-6,7-dihydro-5H-benzo[7]annulen-3-ol] were, in that order, 32% and 7 nM.
On the same counts, the results for `CN(CCCCCCC1=C(c2ccccc2)CCCc2c1ccc(O)c2Cl)CCCS(=O)(=O)CCCC(F)(F)C(F)(F)F` [Example 102, 4-Chloro-9-[6-(methyl{3-[(4,4,5,5,5-pentafluoropentyl)sulphonyl]propyl}amino)hexyl]-8-phenyl-6,7-dihydro-5H-benzo[7]annulen-3-ol] are 24% and 32 nM.
The like results for `CN(CCCCCCC1=C(c2cccc(O)c2)CCCc2cc(O)ccc21)CCCS(=O)(=O)CCCC(F)(F)C(F)(F)F` [Example 13, 8-(3-Hydroxyphenyl)-9-[6-(methyl{3-[(4,4,5,5,5-pentafluoropentyl)sulphonyl]propyl}amino)hexyl]-6,7-dihydro-5H-benzo[7]annulen-3-ol] were, in that order, 79% and 3 nM.
For `CN(CCCCCCC1=C(c2cccc(O)c2)CCCc2cc(O)ccc21)CCCS(=O)(=O)CCCC(F)(F)F` [Example 51, 8-(3-Hydroxyphenyl)-9-[6-(methyl{3-[(4,4,4-trifluorobutyl)sulphonyl]propyl}amino)hexyl]-6,7-dihydro-5H-benzo[7]annulen-3-ol], in data set [1], the inhibition in vivo at 0.3 mg/kg was determined as 62%. For the same compound, the half-inhibitory concentration (IC50) on oestrogen receptor (ER) came out at 2 nM.
For `CN(CCCCCC1=C(c2cccc(O)c2)CCCc2cc(O)ccc21)CCCC[S+]([O-])CCCC(F)(F)C(F)(F)F` (racemic) [Example 6, 8-(3-Hydroxyphenyl)-9-[5-(methyl{4-[(RS)-(4,4,5,5,5-pentafluoropentyl)sulphinyl]butyl}amino)pentyl]-6,7-dihydro-5H-benzo[7]annulen-3-ol], in data set [1], the “Anti-oestrogenic activity in vivo in %” value worked out at 64% and the inhibition in vivo at 0.3 mg/kg worked out at 22%. For the same compound, the IC50 on oestrogen receptor (ER) is 4 nM.
Regarding `CN(CCCCCCC1=C(c2cccc(S(C)(=O)=O)c2)CCCc2cc(O)ccc21)CCC[S+]([O-])CCCC(F)(F)C(F)(F)F` (racemic) [Example 21, 8-(3-Mesylphenyl)-9-[6-(methyl{3-[(RS)-(4,4,5,5,5-pentafluoropentyl)sulphinyl]propyl}amino)hexyl]-6,7-dihydro-5H-benzo[7]annulen-3-ol], in data set [1], the inhibition in vivo at 0.3 mg/kg was found to be 37%. The IC50 at oestrogen receptor (ER) was 5 nM.
The like results for `CN(CCCCCCC1=C(c2cccc(O)c2)CCCc2cc(O)ccc21)CCCS(=O)(=O)CCC(F)(F)F` [Example 56, 8-(3-Hydroxyphenyl)-9-[6-(methyl{3-[(3,3,3-trifluoropropyl)sulphonyl]propyl}amino)hexyl]-6,7-dihydro-5H-benzo[7]annulen-3-ol] were, in that order, 33% and 3 nM.
The like results for `CN(CCCCCCC1=C(c2ccc(F)c(O)c2)CCCc2c1ccc(O)c2Cl)CCCS(=O)(=O)CCCC(F)(F)C(F)(F)F` [Example 24, 4-Chloro-8-(4-fluoro-3-hydroxyphenyl)-9-[6-(methyl{3-[(4,4,5,5,5-pentafluoropentyl)sulphonyl]propyl}amino)hexyl]-6,7-dihydro-5H-benzo[7]annulen-3-ol] were, in that order, 14% and 13 nM.
`CN(CCCCCC1=C(c2ccccc2)CCCc2cc(O)ccc21)CCCSCCCC(F)(F)C(F)(F)F` [Example 1, 9-[5-(Methyl{3-[(4,4,5,5,5-pentafluoropentyl)sulphanyl]propyl}amino)pentyl]-8-phenyl-6,7-dihydro-5H-benzo[7]annulen-3-ol]: the “Anti-oestrogenic activity in vivo in %” value in data set [1] stood at 65%. The IC50 on oestrogen receptor (ER) is 37 nM.
The like results for `CN(CCCCCC1=C(c2ccccc2)CCCc2cc(O)ccc21)CCCS(=O)(=O)CCCC(F)(F)C(F)(F)F` [Example 3, 9-[5-(Methyl{3-[(4,4,5,5,5-pentafluoropentyl)sulphonyl]propyl}amino)pentyl]-8-phenyl-6,7-dihydro-5H-benzo[7]annulen-3-ol] were, in that order, 64% and 15 nM.
On the same counts, the results for `CN(CCCCCC1=C(c2ccc(S(C)(=O)=O)cc2)CCCc2cc(O)ccc21)CCC[S+]([O-])CCCC(F)(F)C(F)(F)F` (racemic) [Example 46, 8-(4-Mesylphenyl)-9-[5-(methyl{3-[(RS)-(4,4,5,5,5-pentafluoropentyl)sulphinyl]propyl}amino)pentyl]-6,7-dihydro-5H-benzo[7]annulen-3-ol] are 31% and 14 nM.
For `CN(CCCCCCC1=C(c2ccc(S(C)(=O)=O)cc2)CCCc2cc(O)ccc21)CCCS(=O)(=O)CCCC(F)(F)C(F)(F)F` [Example 49, 8-(4-Mesylphenyl)-9-[6-(methyl{3-[(4,4,5,5,5-pentafluoropentyl)sulphonyl]propyl}amino)hexyl]-6,7-dihydro-5H-benzo[7]annulen-3-ol], in data set [1], the inhibition in vivo at 0.3 mg/kg was found to be 72%. Moreover, the IC50 on oestrogen receptor (ER) was found to be 3 nM.
